The text below walks through data of US5891622A, “Assessment of oxidative stress in vivo” (Oxford Biomedical Research, Inc., priority 1998, dated 1999).

The test system of data set [1] is anti-8EPGF2 IgG. In words: specificity / cross-reactivity of anti-8EPGF2 IgG (competitive ELISA). The class given is binding, goat. As to conditions: for cross-reaction with anti-8EPGF2 IgG (in words) / cross-reaction with anti-8EPGF2 IgG: 8EPGF2 ELISA. As to the method:
The IgG bound to the protein G column was eluted with 50 mM glycine-HCl buffer, pH 2.5, and immediately neutralized with 0.5M Tris-HCl, pH 7.6.
High-binding strip well microplates (Labsystems, Inc., Marlboro, Ma.) were coated with protein G-purified IgG suspended in 1M carbonate, pH 9.0, (1 μg/well; 200 μL/well final volume) and then covered with parafilm. After overnight incubation at room temperature, the wells were gently washed five times with tris buffered saline (TBS), pH 7.5, containing 0.1% tween. Non-specific sites were blocked by the addition of 0.2 mL of 5% (w/v) nonfat dry milk in TBS. After 2 hours of incubation at room temperature, the plates were washed three times with TBS-tween. […] Following incubation for 1 hour to permit competitive binding to bound antibody, unbound material was removed by thoroughly washing the wells with TBS-tween and 150 μL of a calorimetric substrate for HRP [3,3',5,5'tetramethylbenzidine (TMB) with hydrogen peroxide] (ELISA Technologies) was added. After incubation of the plate for 20 minutes, the reaction is stopped by addition of 75 μL of 1N H2 SO4, and the absorbance at 450 nm determined using a microtiter plate reader. Under these assay conditions, the amount of color in a well is inversely proportional to the initial concentration of the sample or standard ligand.
(An ELISA detects its analyte on a solid surface through an enzyme-linked reagent.)

In data set [2] the test system is anti-8EPGF2 IgG. Kind of data set: immunoaffinity column retention of 8EPGF2 on anti-8EPGF2 IgG resin. In kind it is binding, goat. As to conditions: up to 10 ng 8EPGF2 applied. How it is done:
Reacti-gel was obtained from Pierce Co. and anti-8EPGF2 immunoaffinity column was prepared according to the manufacturer's instruction. […] In each experiment samples were diluted to concentrations lower than the capacity of the column (~0.5 ng/100 μL) prior to application to the column.
Urine samples were applied to immunoaffinity columns, which were then eluted with acetonitrile:water (1:3), followed by acetone:water (90:10). The eluates were then processed and analyzed using the standard GC/MS protocol as described herein above. […] PGF2α has a slightly longer retention time than the [^2 H4 ]-PGF2α (the internal control) shown in the bottom chromatograms of FIG. 4A and 4B, because protium runs faster than deuterium on GC [Wendelborn et al, 1990]. The six peaks with m/z=569 are numbered by the order of elution and the elution time of each peak was divided by the elution time of internal standard, [^2 H4 ]-PGF2α, obtained at m/z=573 to calculate relative elution time of each peak. […] The identity of Peak I, II, III, and VI is not known.

In another data set the test system is vasoconstriction. As to conditions: cited from earlier work.
The conditions of data set [3]: aqueous solution, non-enzymatic rearrangement to PGD2 and PGE2; cited from earlier work.

As to `CCCCC[C@H](O)/C=C/[C@@H]1[C@@H](CC(=O)CCCCC(=O)O)[C@@H](O)C[C@H]1O` [6-keto-PGF1α], in the data set on anti-8EPGF2 IgG [1], the “cross-reaction with anti-8EPGF2 IgG (in words)” value (“cross-reaction … (in words)” for short) is reported as “did not cross-react”.

Turning to `CCCCC[C@H](O)/C=C/[C@@H]1[C@H](CCCCCCC(=O)O)[C@@H](O)C[C@H]1O` [8-epi-PGF1α, 5,6-dihydro-8-iso-PGF2α], the “cross-reaction … (in words)” value in the data set on anti-8EPGF2 IgG [1] was “did not cross-react”.

On to `CCCCC[C@H](O)/C=C/[C@@H]1[C@H](CCCCCCC(=O)O)[C@H](O)C[C@H]1O` [8-epi-PGF1β], for which the “cross-reaction … (in words)” value in the data set on anti-8EPGF2 IgG [1] is “did not cross-react”.

With `CCCCC[C@H](O)/C=C/[C@@H]1[C@H](C/C=C\CCCC(=O)O)[C@@H](O)C[C@H]1O` [8EPGF2, 8-epi-prostaglandin F2α], the “recognition by anti-8EPGF2 antibody (in words)” value with anti-8EPGF2 IgG [1] (polyclonal antibody, ELISA) is reported as “recognized”. Moreover, the “applied 8EPGF2 bound to antibody cross-linked to resin” value in the data set on anti-8EPGF2 IgG [2] is listed as “higher than 98%”. Moreover, the “unbound 8EPGF2” value in the data set on anti-8EPGF2 IgG [2] (100 μl resin) is “lower than 2%”. In addition, the “vasoconstrictor property (in words)” value in the data set with vasoconstriction is reported as “vasoconstrictor property”. Also, the “effect of high serum concentration on renal arteries (in words)” value with vasoconstriction (hepatorenal syndrome patients) was “intense vasoconstriction of renal arteries”.

As for `CCCCC[C@H](O)/C=C/[C@@H]1[C@@H](C/C=C\CCCC(=O)O)[C@@H](O)C[C@@H]1O` [9α-11β-PGF2], the “cross-reaction with anti-8EPGF2 IgG” value with anti-8EPGF2 IgG [1] was found to be 4.1%.

For the compound `CCCCC[C@H](O)/C=C/[C@@H]1[C@@H](C/C=C\CCCC(=O)O)[C@H](O)C[C@H]1O` [9β-11α-PGF2α], in the data set with anti-8EPGF2 IgG [1], the “cross-reaction … (in words)” value is “did not cross-react”.

As for `CCCCC[C@H](O)/C=C/[C@@H]1[C@@H](CCCCCCC(=O)O)[C@H](O)C[C@@H]1O` [11β-PGF1β], the “cross-reaction … (in words)” value with anti-8EPGF2 IgG [1] was “did not cross-react”.

In the case of `CCCCC[C@H](O)CC[C@@H]1[C@@H](CCCCCCC(=O)O)[C@@H](O)C[C@H]1O` [13,14-dihydro-PGF1α], the “cross-reaction … (in words)” value with anti-8EPGF2 IgG [1] is given as “did not cross-react”.

For the compound `CCCCCC(=O)CC[C@@H]1[C@@H](CCCCCCC(=O)O)[C@@H](O)C[C@H]1O` [13-14-dihydro-15-keto-PGF1α], in the data set on anti-8EPGF2 IgG [1], the “cross-reaction … (in words)” value is reported as “did not cross-react”.

`CCCCCC(=O)CC[C@@H]1[C@@H](C/C=C\CCCC(=O)O)[C@@H](O)C[C@H]1O` [13-14-dihydro-15-keto-PGF2α]: the “cross-reaction with anti-8EPGF2 IgG” value in the data set on anti-8EPGF2 IgG [1] is 3%.

For the compound `CCCCC[C@H](O)/C=C/[C@H]1C(=O)C[C@H](O)[C@@H]1C/C=C\CCCC(=O)O` [PGD2], the “cross-reaction … (in words)” value with anti-8EPGF2 IgG [1] is reported as “did not cross-react”.

Take `CCCCC[C@H](O)/C=C/[C@@H]1[C@@H](CCCCCCC(=O)O)[C@H](O)C[C@H]1O` [PGF1β]: the “cross-reaction … (in words)” value with anti-8EPGF2 IgG [1] is listed as “did not cross-react”.

Take `CCCCC[C@H](O)/C=C/[C@@H]1[C@@H](C/C=C\CCCC(=O)O)[C@@H](O)C[C@H]1O` [PGF2α]: in the data set on anti-8EPGF2 IgG [1], the “cross-reaction … (in words)” value is “did not cross-react”.

For the compound `CCCCC/C=C\C/C=C\C/C=C\C/C=C\CCCC(=O)O` [arachidonic acid], the “cross-reaction … (in words)” value with anti-8EPGF2 IgG [1] is reported as “did not cross-react”.

Regarding `CCCCC[C@H](O)/C=C/[C@H]1[C@H](O)CC(=O)[C@@H]1C/C=C\CCCC(=O)O` [prostaglandin E2], in the data set on anti-8EPGF2 IgG [1], the “cross-reaction … (in words)” value was “did not cross-react”.

Turning to `CCCCC[C@@H](/C=C/[C@@H]1[C@@H](C/C=C\CCCC(=O)O)[C@@H]2C[C@H]1OO2)OO` [prostaglandin G2], in data set [3], the t1/2 is recorded as ~ 5 minutes.

Consider `CCCCC[C@H](O)/C=C/[C@@H]1[C@@H](C/C=C\CCCC(=O)O)[C@@H]2C[C@H]1OO2` [prostaglandin H2], for which the t1/2 in data set [3] was ~ 5 minutes.
